In PubChem BioAssay (NCI) one finds TGI and GI50 data, which are given here for 15 compounds.

Common to all, as to assay: NCI tumour cell line growth inhibition, 48 h
Test [1] deals with OVCAR-3 ovarian.
For test [2], the system named is KM12 colon.
Test [3] relates to ACHN renal.
Test [4] has as its system K-562 leukemia.
In test [5] the test system is NCI/ADR-RES ovarian.
Test [6] relates to RXF 393 renal.
The subject of test [7] is HCT-116 colon.
For test [8], the system named is LOX IMVI melanoma.
Test [9] has as its system T-47D breast.
Test [10] concerns MCF7 breast.

The structures appear in SMILES notation.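 Step 1: Grow cells in 96-well plates. Step 2: Expose to compound for 48 hours at 5 concentrations. Step 3: Interpolate endpoints linearly; if unreached, use highest concentration. GI50 marks 50% less growth. TGI denotes the concentration required for complete inhibition of growth.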

For `CC(=O)Nc1c(S(=O)(=O)c2ccccc2)c(C)c(C)n1Cc1ccccc1`, the TGI in test [1], in test [2], in test [3], in test [4], in test [5] and in [6] was over 100 µM each time. In [7], the TGI was over 100 µM.
For `C=C(C)COC1CCCCO1` (stereo not given), the TGI in test [8], in [9], in [1], in test [10], in [2] and in test [3] was over 100 µM each time. In addition, the TGI in [4], in [5] and in [7] was over 100 µM each time.
In the case of `Cc1oc2c(c1C)S(=O)(=O)C(C#N)=C(N(C)C)N2`, the TGI in test [8], in test [9], in test [1], in test [10], in test [2] and in test [3] was over 100 µM each time. The TGI in [4], in test [5] and in [7] was over 100 µM in each case.
`Cc1cc(S(=O)(=O)Nc2nc3ccccc3nc2-c2ccc(Cl)cc2)c(S)cc1Cl`: the TGI in test [9] is 32.8 µM; in test [1] it was 29.9 µM; in test [10], 34.1 µM; in test [2], 35.4 µM; in test [3] it was 34.9 µM; in [4] it was 70.6 µM. Also, the TGI came out at 36.9 µM in test [5], 46.6 µM in [6] and 40.5 µM in [7].
Take `CCN(CC)CCN1C(=O)c2c(c3c4ccccc4[nH]c3c3ccc4ccccc4c23)C1=O`: the GI50 in test [9] is 13 µM; in [1] it was 1.65 µM; in test [10], 0.0836 µM; in test [2], 1.74 µM; in test [3], 1.54 µM; in test [4], 1.82 µM. Further, the results for the GI50 in test [5] and in test [6] were 1.59 µM and 1.42 µM, respectively. The TGI in [9] was determined as 38.9 µM; in test [1] it was 3.03 µM; in [10] it was 1.96 µM; in test [2] it was 3.22 µM; in [3], 2.87 µM; in test [4], 5.32 µM. The TGI in test [5] is 4.15 µM; in test [6], 2.83 µM.
Regarding `O=C(/C=C(\S/C=C(/c1ccccc1)N1CCn2c(C(=O)c3ccccc3)c(C(=O)c3ccccc3)c(C(=O)c3ccccc3)c21)C(=O)c1ccccc1)c1ccccc1`, the TGI in test [9], in test [1], in test [10], in test [2], in test [3] and in test [4] was over 10 µM each time. Further, the TGI in test [5] and in test [7] was over 10 µM each time.
Take `C=C1C(=O)O[C@@H]2[C@H](O)[C@@H](C)[C@@H]3C=CC(=O)[C@@]3(C)[C@@H](OC(=O)/C(C)=C/C)[C@H]12`: the TGI in [8] was 2.88 µM; in test [1] it was 1.69 µM; in test [10], 5.15 µM; in [2], 7.21 µM; in test [4] it was 3.48 µM; in [5], 5.39 µM. Besides, the TGI in test [6] stood at 1.14 µM; in test [7], 1.03 µM.
As for `COCN1COCN=C1NC#N`, the TGI in test [1], in [2], in test [3], in [4], in [6] and in test [7] was over 100 µM throughout.
For `C=C1CC(Cn2ccc(=O)[nH]c2=O)(c2ccc(Cl)cc2)OC1=O` (stereo not given), the TGI was 5.94 µM in test [8]; 12.1 µM in [9]; 21.8 µM in [1]; 7.56 µM in test [10]; over 58.4 µM in test [2]; 10.4 µM in test [3]. Further, the TGI in [4] amounted to 5.38 µM; in [5] it was 19 µM; in test [7], 5.63 µM.
In the case of `COc1cc2c(c(O)c1OC)CC1CCC(=O)N1C2c1cccc2ccccc12` (stereo not given), the TGI was 52.4 µM in [8]; 48.4 µM in test [9]; 44.6 µM in test [1]; over 100 µM in test [10]; 55.4 µM in [2]; over 100 µM in [3]. Besides, the TGI in test [4] was over 100 µM; in test [5], 53.7 µM; in test [7] it was 45.3 µM.
On to `C=C(NC(=O)C(=C)NC(=O)c1csc(C2=NC3c4csc(n4)C4NC(=O)c5csc(n5)C(C(C)(O)C(C)O)NC(=O)C5CSC(=N5)/C(=C/C)NC(=O)C(C(C)O)NC(=O)c5csc(n5)C3(CC2)NC(=O)C(C)NC(=O)C(=C)NC(=O)C(C)NC(=O)C(C(C)CC)NC2C=Cc3c(C(C)O)cc(nc3C2O)C(=O)OC4C)n1)C(N)=O` (stereo not given), for which the TGI is 2.45 µM in test [8]; over 25.8 µM in [1]; over 100 µM in [10]; 11.7 µM in [3]; over 100 µM in test [5]; 0.977 µM in [6]. Further, in test [7], the TGI is 1.77 µM. Further, the GI50 is 6.27 µM in test [10] and 0.307 µM in test [6].
In the case of `COc1ccc([C@@H]2CC(=O)N2)cc1`, the TGI in test [2], in test [3], in [4], in test [6] and in [7] was over 100 µM each time.
Take `O=C(c1ccccc1)C1S(=O)(=O)OCCOS1(=O)=O`: the TGI in test [8], in test [1], in test [2], in test [4] and in [7] was over 100 µM in each case.
As for `COc1ccccc1NC(=O)CC(=O)N1N=C(N2c3ccccc3Sc3ccccc32)CC1c1ccccc1` (stereo not given), the TGI in [9], in test [1], in test [10], in [2], in test [3] and in test [4] was over 100 µM in each case. Moreover, the TGI in test [5], in [6] and in test [7] was over 100 µM in each case.
Take `O=C1CC(c2ccccc2)=Nc2ccccc2N1`: the TGI is 97.6 µM in test [8]; over 100 µM in test [1]; over 100 µM in [2]; over 100 µM in test [3]; over 100 µM in [4]; over 100 µM in [6]. Besides, the TGI in test [7] was over 100 µM.
